Target: BTK (Homo sapiens, UniProt Q06187)
Test: biochemical
Settings: read-out: BTK inhibition (%), 0.75 uM BTK, […] probe 3l, 15 min preincubation

BTK, sequence (Q06187 402-655 limits assumed): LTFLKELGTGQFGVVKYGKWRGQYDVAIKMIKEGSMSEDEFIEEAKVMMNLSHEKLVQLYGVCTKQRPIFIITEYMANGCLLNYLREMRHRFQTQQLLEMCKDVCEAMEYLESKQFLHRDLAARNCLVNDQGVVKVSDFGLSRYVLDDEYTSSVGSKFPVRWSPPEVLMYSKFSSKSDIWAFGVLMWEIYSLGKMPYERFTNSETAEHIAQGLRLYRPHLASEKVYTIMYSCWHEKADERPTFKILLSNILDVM

Point of comparison: `CC1(C)S[C@@H]2[C@H](NC(=O)[C@H](N)c3ccccc3)C(=O)N2[C@H]1C(=O)OCOC(=O)[C@@H]1N2C(=O)C[C@H]2S(=O)(=O)C1(C)C` [PCM-0216243], inhibition at 10 µM -11.6%. Against it:
- COC(=O)CCC(=O)CN [PCM-0216554] — higher, -7.7%
- CC(C)(Sc1ccncc1-c1ccc(C#N)c2ccccc12)C(=O)O [PCM-0216646] — lower, -27.8%
- O=C(O)c1cc2cccc([N+](=O)[O-])c2[nH]1 [PCM-0095778] — higher, 0.8%
- CC[C@H]1OC(=O)[C@H](C)[C@@H](O[C@H]2C[C@@](C)(OC)[C@@H](O)[C@H](C)O2)[C@H](C)[C@@H](O[C@@H]2O[C@H](C)C[C@H](N(C)C)[C@H]2O)[C@](C)(O)C[C@@H](C)[C@@H]2N[C@@H](COCCOC)O[C@H]([C@H]2C)[C@]1(C)O [PCM-0214762] — higher, -10.9%
- O=C(Nc1cccc(Cl)c1)Nc1ncc(CCNc2ncnc3ccsc23)s1 [PCM-0094983] — higher, 73.1%
- CC(C)(Cc1ccc2ccccc2c1)NC[C@@H](O)COc1cccc(Cl)c1C#N [PCM-0095749] — lower, -11.7%
- Nc1ccn(C[C@@H](CO)OCP(=O)(O)O)c(=O)n1 [PCM-0095189] — lower, -12.8%
- Nc1c(CC(=O)O)cccc1C(=O)c1ccc(Br)cc1 [PCM-0214777] — lower, -47.6%
- Brc1ccc2[nH]ccc2c1 [PCM-0216166] — the same, -11.6%
- CC(C)[C@H](CO)Nc1nc(Nc2cccc(Cl)c2)c2ncn(C(C)C)c2n1 [PCM-0215464] — higher, 50.3%
- O=[N+]([O-])c1ccc2c(c1)S(=O)(=O)C=C2 [PCM-0065368] — higher, 40.9%
- O=C1CC(=O)c2c(Cl)c(Cl)c(Cl)c(Cl)c21 [PCM-0215201] — higher, 79.5%
- Nc1ncnc2c1ncn2C(C=O)OC(C=O)CO (centres unmarked) [PCM-0215903] — higher, 0.8%
- CCC(=C(c1ccc(O)cc1)c1ccc(OCCN(C)C)cc1)c1ccccc1 [PCM-0215638] — the same, -11.6%
- CO/N=C(\C(=O)N[C@@H]1C(=O)N2C(C(=O)OCOC(=O)C(C)(C)C)=C(C)CS[C@H]12)c1csc(N)n1 [PCM-0216124] — higher, -4.7%
- O=C(O)C1=CO[C@@H](O[C@@H]2O[C@H](CO)[C@@H](O)[C@H](O)[C@H]2O)[C@H]2[C@@H]1C=C[C@]2(O)CO [PCM-0216181] — higher, -6.9%
- NC(=O)c1cccnc1 [PCM-0085961] — higher, 12.5%
- NCCC(O)(P(=O)(O)O)P(=O)(O)O [PCM-0094901] — higher, -6.8%
- c1ccc2occc2c1 [PCM-0216211] — higher, 6.2%
- CCCCCCCCCCCCOC(=O)CS(=O)(=O)O [PCM-0215935] — lower, -12.8%
- O=C(C[S+]([O-])Cc1ccco1)NC/C=C\COc1cc(CN2CCCCC2)ccn1 (centres unmarked) [PCM-0095231] — higher, -9%
- COc1cc(-c2coc3cc4c(c(OC)c3c2=O)OCO4)cc(OC)c1OC [PCM-0216353] — higher, -9.3%
- O=c1cc(N2CCOCC2)oc2c(-c3ccc4c(c3)OCCO4)csc12 [PCM-0215845] — higher, 23.4%
- CN1CCc2nc(C(=O)N[C@@H]3C[C@@H](C(=O)N(C)C)CC[C@@H]3NC(=O)C(=O)Nc3ccc(Cl)cn3)sc2C1 [PCM-0216277] — higher, -4.6%
- CCc1cc(Nc2nc(-c3ccc(-n4cnc(C)c4)c(F)c3)cs2)c(C)cc1C [PCM-0215986] — higher, 10%
- COc1ccc(Cn2c3ncnc4c(ncn4Cc4ccc(OC)cc4)c-3nc2=O)cc1 [PCM-0215699] — higher, 7.7%
- O=C(O)c1nn(Cc2ccc(Cl)cc2Cl)c2ccccc12 [PCM-0065622] — higher, 11%
- C[C@@H]([C@H](C)O)[C@H](N)C(=O)O [PCM-0216300] — lower, -12.4%
- CC1(O)CC(c2nc(-c3ccc4ccc(-c5ccccc5)nc4c3)c3c(N)nccn23)C1 (centres unmarked) [PCM-0214568] — higher, 33.1%
- NCc1c[nH]c(=S)n1[C@H]1CCc2c(F)cc(F)cc2C1 [PCM-0214705] — lower, -17.1%
- C=C[C@]1(C)C[C@@H](OC(=O)CSC(C)(C)CNC(=O)[C@H](N)C(C)C)[C@]2(C)[C@H](C)CC[C@]3(CCC(=O)[C@H]32)[C@@H](C)[C@@H]1O [PCM-0214765] — higher, 20.2%

From article PMC8041284, “Tunable Methacrylamides for Covalent Ligand Directed Release Chemistry” (Journal of the American Chemical Society, 2021)
